System: MV-4-11 cell line
Assay: MV-4-11 cell line xenografted mouse model, tumor volume / tumor growth inhibition
Assay type: in vivo
Conditions: nude mice xenografted with MV-4-11; Compound A 3 mg/kg/day orally once a day, days 1 to 21
Protocol: In a mouse model xenografted with the MV-4-11 cell line, comparison or combination efficacy tests were conducted of the FLT3 inhibitor 5-Chloro-N-(3-cyclopropyl-5-(((3R,5S)-3,5-dimethylpiperazine-1-yl)methyl)phenyl)-4-(6-methyl-1H-indole-3-yl)pyrimidin-2-amine (hereinafter compound A); 4-amino-1-[(2R,3S,4S,5R)-3,4-dihydroxy-5-(hydroxymethyl)oxolane-2-yl]pyrimidin-2-one (hereafter cytarabine); and ((8S,10S)-8-acetyl-10-[(2S,4S,5S,6S)-4-amino-5-hydroxy-6-methyl-oxane-2-yl]oxy-6,8,11-trihydroxy-1-methoxy-9,10-dihydro-7H-tetracene-5,12-dione (hereafter daunorubicin).
The MV-4-11 cell line was purchased from the American Type Culture Collection (ATCC). To construct a xenografted mouse model using this MV-4-11 cell line, 5-week-old female CAnN·Cg-Foxn1nu/Crljbgi mice (hereinafter, Nude mice) were purchased from Charles River Laboratories Japan, Inc.
The MV-4-11 cell line was inoculated subcutaneously in the flank with 5×10^6 cells/[…]/mouse and allowed to grow. Mice having a tumor volume of 100 to 300 mm^3 (length×width^2×0.5) were selected 1 day before administration, the average tumor volume in each group was divided into 4 groups (5 animals/group) so that the average tumor volume was almost the same, and each dose was administered for a total period of 21 days. […]

Compound: Cc1ccc2c(-c3nc(Nc4cc(CN5C[C@@H](C)N[C@@H](C)C5)cc(C5CC5)c4)ncc3Cl)c[nH]c2c1 [compound A, 5-Chloro-N-(3-cyclopropyl-5-(((3R,5S)-3,5-dimethylpiperazine-1-yl)methyl)phenyl)-4-(6-methyl-1H-indole-3-yl)pyrimidin-2-amine]
- Tumor growth inhibition (TGI): 34.7%

— patent US12350265B2, “Pharmaceutical composition for treating acute myeloid leukemia, containing FLT3 inhibitor and chemotherapeutic agents” (Hanmi Pharm. Co., Ltd., priority 2019, dated 2025)
